{"source": "patent US20220257649A1", "about": "“COMBINATION THERAPIES FOR MULTIPLE MYELOMA” (NantCell, Inc., priority 2018, published 2022)", "origin": "cited, not measured here", "key": {"[1]": {"tested_on": "multiple myeloma", "settings": "for rate of nearly complete response (CR): in combination with dexamethasone, induction therapy before ASCT; for rate of nearly CR: three-drug induction schedule: bortezomib-dexamethasone plus the named drug"}, "[2]": {"tested_on": "primary multiple myeloma cells", "settings": "in the presence of peripheral lymphocytes"}, "[3]": {"tested_on": "relapsed or refractory multiple myeloma", "settings": "alone, with bortezomib, or with lenalidomide and low-dose dexamethasone"}, "[4]": {"molecular_target": "T1, IL-2Rβγ (Homo sapiens, UniProt P14784+P31785)", "T1 sequence (P14784 27-551)": "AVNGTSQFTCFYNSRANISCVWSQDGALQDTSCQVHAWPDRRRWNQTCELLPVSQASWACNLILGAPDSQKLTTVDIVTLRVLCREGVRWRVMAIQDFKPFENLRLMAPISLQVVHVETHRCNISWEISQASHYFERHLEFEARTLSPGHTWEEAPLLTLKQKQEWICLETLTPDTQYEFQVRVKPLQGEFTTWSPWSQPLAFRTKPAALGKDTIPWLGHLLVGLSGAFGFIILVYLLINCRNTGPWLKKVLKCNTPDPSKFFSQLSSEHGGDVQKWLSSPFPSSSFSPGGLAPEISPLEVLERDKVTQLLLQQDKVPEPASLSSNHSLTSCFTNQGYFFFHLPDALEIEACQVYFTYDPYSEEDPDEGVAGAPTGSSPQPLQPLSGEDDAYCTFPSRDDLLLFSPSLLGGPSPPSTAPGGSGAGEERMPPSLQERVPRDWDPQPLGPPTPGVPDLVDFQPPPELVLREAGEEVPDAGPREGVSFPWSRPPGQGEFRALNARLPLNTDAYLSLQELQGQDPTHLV", "T1 sequence (P31785 23-369)": "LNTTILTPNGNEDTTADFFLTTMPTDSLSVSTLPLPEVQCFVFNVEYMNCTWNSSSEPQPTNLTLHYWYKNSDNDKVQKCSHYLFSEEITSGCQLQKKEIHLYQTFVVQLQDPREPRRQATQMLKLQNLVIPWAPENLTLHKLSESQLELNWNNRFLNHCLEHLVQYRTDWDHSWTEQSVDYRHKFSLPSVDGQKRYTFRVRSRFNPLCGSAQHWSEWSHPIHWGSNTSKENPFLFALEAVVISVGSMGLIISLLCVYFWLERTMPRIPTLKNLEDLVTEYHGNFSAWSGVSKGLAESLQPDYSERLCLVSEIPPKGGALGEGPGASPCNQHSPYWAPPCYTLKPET", "settings": "IL-15 mutant"}, "[5]": {"settings": "following i.v. administration in mice"}, "[6]": {"tested_on": "aggressive solid and hematological tumor models"}, "[7]": {"tested_on": "IL-15 activity", "settings": "in vitro and in vivo"}}}
{"compound": "O=C1CCC(N2C(=O)c3ccccc3C2=O)C(=O)N1", "note": "(stereo not drawn) [Thalidomide]", "values": [{"measurement": "rate of nearly complete response (CR)", "setting": "[1]", "value": 8, "unit": "%"}, {"measurement": "rate of nearly CR", "setting": "[1]", "value": 32, "unit": "%"}]}
{"compound": "CC(C)C[C@H](NC(=O)[C@H](Cc1ccccc1)NC(=O)c1cnccn1)B(O)O", "note": "[bortezomib]", "values": [{"measurement": "rate of nearly complete response (CR)", "setting": "[1]", "value": 16, "unit": "%"}]}
{"compound": "O=P1(N(CCCl)CCCl)NCCCO1", "note": "(stereo not drawn) [cyclophosphamide]", "values": [{"measurement": "rate of nearly CR", "setting": "[1]", "value": 39, "unit": "%"}]}
{"compound": "COc1cccc2c1C(=O)c1c(O)c3c(c(O)c1C2=O)C[C@@](O)(C(=O)CO)C[C@@H]3O[C@H]1C[C@H](N)[C@H](O)[C@H](C)O1", "note": "[doxorubicin]", "values": [{"measurement": "rate of nearly CR", "setting": "[1]", "value": 7, "unit": "%"}]}
{"compound": "Nc1cccc2c1CN(C1CCC(=O)NC1=O)C2=O", "note": "(stereo not drawn) [lenalidomide]", "values": [{"measurement": "rate of nearly complete response (CR)", "setting": "[1]", "value": 15, "unit": "%"}, {"measurement": "rate of nearly CR", "setting": "[1]", "value": 57, "unit": "%"}]}
{"compound": "Elotuzumab: humanized monoclonal IgG1 antibody directed against CS-1", "values": [{"measurement": "antibody-dependent cellular cytotoxicity (ADCC)", "setting": "[2]", "value": "significant antibody-dependent cellular cytotoxicity (ADCC)"}, {"measurement": "activity", "setting": "[3]", "value": "encouraging activity"}, {"measurement": "safety profile", "setting": "[3]", "value": "manageable safety profile"}]}
{"compound": "IL-15N72D: IL-15 mutant with increased ability to bind IL-2Rβγ; component of N-803", "values": [{"measurement": "ability to bind IL-2Rβγ", "setting": "[4]", "value": "increased ability to bind IL-2Rβγ"}]}
{"compound": "N-803: IL-15 super agonist complex: IL-15 mutant (IL-15N72D) bound to an IL-15 receptor α/IgG1 Fc fusion protein", "values": [{"measurement": "half-life", "setting": "[5]", "value": 25, "unit": "h"}, {"measurement": "anti-tumor activity", "setting": "[6]; aggressive solid and hematological tumor models, immunocompetent mice", "value": "impressive anti-tumor activity"}, {"measurement": "resistance of cured tumor-bearing mice to re-challenge with the same tumor cells", "setting": "[6]; mice cured after N-803 treatment", "value": "highly resistant to re- challenge"}, {"measurement": "IL-15 activity", "setting": "[7]", "value": "highly potent IL-15 activity"}]}
